IC50 data for 28 compounds are collected here from PubChem BioAssay AID651649 (Sanford-Burnham Center for Chemical Genomics, 2012).

In this experiment the target is CRF-binding protein / CRF-R2 receptor complex (human). Nature of the experiment: inhibition of CRF-induced CRF-R2.BP calcium signal – cell-based, 384-well, HEK293, calcium flux, powder samples, SAR follow-up (AID 651649). As to conditions: Fluo4. For orientation: Calcium flux is commonly read through the fluorescence of an indicator in the cells.

Structures are written as SMILES. Activity calls are given as the source filed them.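 How the source made its calls: active means IC50 below 20 µM; inactive means the rest.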 Some results are limits rather than exact numbers.

As to `Brc1ccccc1-c1nnc(CSc2nnnn2-c2ccccc2)o1`, the concentration for half-maximal inhibition (IC50) was 632 nM.

For `NC(=O)c1ccc(NCc2ccco2)c([N+](=O)[O-])c1`, the IC50 was 1350 nM.

In the case of `COc1cccc2cc(-c3nnc(-c4ccccc4)o3)c(=O)oc12`, the half-inhibitory concentration (IC50) is less than 125 nM.

For `COc1ccc(Oc2ccc(C(F)(F)F)cc2NC(=O)c2ccc(OC)cc2)cc1`, the IC50 is > 40000 nM (inactive).

Take `O=C(COc1cc(Cl)ccc1Cl)N1CCNC1=O`: the IC50 is 5850 nM.

Turning to `CCOc1ccc(Cl)cc1S(=O)(=O)n1nnc2ccccc21`, the IC50 was 1170 nM.

For `Cc1ccc(NC(=O)c2ccccc2NS(=O)(=O)c2ccc(F)cc2)cc1S(=O)(=O)N1CCCCC1`, the IC50 was > 40000 nM (inactive).

Consider `Cc1ccccc1-c1cc2nc(-c3ccc([N+](=O)[O-])cc3)cc(=O)n2[nH]1`, for which the IC50 is > 40000 nM (inactive).

Take `C=CCOc1ccc(/C=C2\SC(=S)N(NS(=O)(=O)c3ccccc3)C2=O)cc1`: the IC50 was 4810 nM.

With `Cn1c(COc2ccccc2)nnc1SCC(=O)c1cccc([N+](=O)[O-])c1`, the IC50 is > 40000 nM (inactive).

For `O=C(COc1ccc2ccccc2c1)Nc1cccc(C(=O)Nc2ccccc2C(=O)O)c1`, the 50% inhibitory concentration (IC50) was 7540 nM.

For the compound `Cc1ccccc1Cn1ccc(NC(=O)c2cc3ncc(Br)cn3n2)n1`, the IC50 was > 40000 nM (inactive).

In the case of `O=c1oc2ccc3ccccc3c2cc1-c1nnc(-c2ccccc2)o1`, the 50% inhibitory concentration (IC50) was 636 nM.

As to `Cc1ccc(-n2nnnc2SCc2nnc(-c3ccccc3Br)o2)c(C)c1`, the IC50 is 6040 nM.

As for `O=C(O)c1ccc(COc2ccccc2C=C2C(=O)c3ccccc3C2=O)cc1`, the IC50 is 4520 nM.

For the compound `CC(=O)NC(Cc1ccc(C)cc1)C(=O)NC1CCN(c2ncccc2[N+](=O)[O-])CC1` (stereo not drawn), the concentration for half-maximal inhibition (IC50) was 2760 nM.

Turning to `COC(=O)c1ccc(CSc2nc3ccccc3c(=O)n2-c2ccccc2)o1`, the IC50 is 5030 nM.

For the compound `CC(C)(C)c1cc(C(=O)NNC(=O)Nc2cccc(Cl)c2)n(Cc2ccccc2)n1`, the concentration for half-maximal inhibition (IC50) was 2540 nM.

With `COc1ccc([N+](=O)[O-])cc1NC(=O)c1ccccc1SC`, the concentration for half-maximal inhibition (IC50) was 214 nM.

As to `CC1CC(C)CN(C(=O)CSc2nc(Cc3cccs3)nc3ccccc23)C1` (stereo not drawn), the IC50 is 2380 nM.

As to `Cc1nc2nc(SCC(=O)c3cccc([N+](=O)[O-])c3)[nH]c2cc1Br`, the IC50 result was “inactive”.

Turning to `COc1cccc(C2CC(c3cccs3)=NN2C(=O)c2ccco2)c1O` (stereo not drawn), the IC50 is 1540 nM.

Regarding `COc1ccc(C(=O)COC(=O)c2cccnc2SC)cc1`, the IC50 was > 20000 nM (inactive).

Consider `Cc1ccc2cccc(Oc3ncnc4scc(-c5ccccc5)c34)c2n1`, for which the IC50 was 8730 nM.

In the case of `Cc1ccc(S(=O)(=O)N(CC(=O)Nc2ccccc2C(=O)O)c2ccc(Cl)cc2)cc1`, the half-inhibitory concentration (IC50) was 3220 nM.

In the case of `COCCNc1nc2c(S(=O)(=O)c3cc(C)ccc3C)nnn2c2ccccc12`, the IC50 is > 40000 nM (inactive).

Turning to `CC(C)Cn1c(SCC(=O)N2CCc3ccccc3C2)nc2cc(Cl)ccc2c1=O`, the IC50 was 946 nM.

As to `COc1cccc(NC(=S)NC(Cc2ccccc2)c2ccccc2)c1` (stereo not drawn), the IC50 was 1040 nM.

What is called IC50 is the concentration that inhibits the measured activity by half.
